Laboratory results taken from patent publication US20200270588A1, “GLUCOSYL TRANSFERASE POLYPEPTIDES AND METHODS OF USE” (Syngenta Participations AG, priority 2017, published 2020).
Where “and” joins values, the source holds several entries; their conditions need not be identical. Identical values can stand only once.

Target: T1, Zea mays bx8 glucosyl transferase (SEQ ID 2) (Zea mays, UniProt Q8W2B7)
T1 construct: His tag; made in house
T1 sequence (Q8W2B7 1-459): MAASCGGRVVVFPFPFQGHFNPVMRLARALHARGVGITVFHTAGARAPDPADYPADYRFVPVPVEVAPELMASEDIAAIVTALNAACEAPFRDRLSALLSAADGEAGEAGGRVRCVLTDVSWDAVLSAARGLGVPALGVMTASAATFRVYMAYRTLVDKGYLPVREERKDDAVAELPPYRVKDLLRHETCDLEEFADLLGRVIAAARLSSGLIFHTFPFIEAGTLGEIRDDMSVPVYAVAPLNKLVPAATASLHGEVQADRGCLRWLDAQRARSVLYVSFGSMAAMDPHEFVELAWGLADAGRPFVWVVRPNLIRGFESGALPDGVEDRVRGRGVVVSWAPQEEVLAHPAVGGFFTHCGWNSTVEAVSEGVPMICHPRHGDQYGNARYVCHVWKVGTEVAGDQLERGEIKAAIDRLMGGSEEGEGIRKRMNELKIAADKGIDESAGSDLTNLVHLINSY
Experiment: LC/MS glucosyl transferase assay (glucoside peak area), purified enzyme
Type: biochemical
Settings: for integrated peak area of beta-glucoside product: LC/MS, about 60 min, ~15 pmol enzyme, relative quantification only
Procedure: In an alternative method for assaying the various enzymes, the test glucosyl transferase enzyme is reacted with substrates exactly as above except that the assay is stopped by adding an equal volume of acetonitrile. Alternatively 50 or 100 μl samples from assay reactions are added to 500 μl ethyl acetate to stop the reaction. In this case samples are then vortexed and 400 μl of the ethyl acetate partition removed, dried down, and resuspended in 100 μl 80:20 acetonitrile/water. The formation of product gluco side and/or disappearance of substrate test herbicide is then monitored directly by LC/MS. Samples are analyzed by LC-MS using an Agilent 1290 liquid chromatography system and Thermo Q-Exactive mass spectrometer. The chromatography is achieved on a Waters Acquity C18 BEH (50×2.1 mm) 1.7 μm particle size column, using a 6 minute gradient run of Water (0.2% formic acid) and Acetonitrile. The Q-Exactive is operated in positive ionisation electrospray mode, using Full scan-AIF mode, at 35,000 resolution, between 100-800 m/z. All analytes are identified from the full scan data to within at least 5 ppm accuracy of their predicted pseudo-molecular ion [M+H]^+ m/z value. In order to obtain quantitative data standard curves are run using herbicides and herbicide glucosides synthesized as standards. Where these synthetic glucosides were not available the LC/MS assay could only be used to provide relative data.
DNA sequences, optimized for E. coli codon usage, were cloned, expressed and the various proteins purified and assayed as described in the foregoing examples. Using the UDP assay (as described in examples 1, 3 and 6) the data obtained from the Zea mays bx8 w/t protein and its variants was noisy due to relatively high background rates in DMSO reagent blanks. The values reported in the table 15 were thus monitored by LC/MS as described in example 1.
DNA sequences, optimized for E. coli codon usage, are cloned, expressed and the various proteins purified and assayed as described in the foregoing examples. As in Example 4, a DNA sequence is designed and synthesized to express the N-terminally his tagged Zea mays bx8 (SEQ ID No: 2). However in this case the DNA sequence is modified to further include a peptide insertion “GIGVD”=SEQ ID No: 102 in place of D442 of SEQ ID No: 2 and as indicated in Table 2. The resultant modified sequence is cloned into the E. coli expression plasmid pET24a using 5′ NdeI and 3′ XhoI restriction sites, expressed, purified and assayed. […] In LC/MS assays run for 30 min and similar to those described in example 7 the integrated peak areas for glucoside product from herbicide V from the w/t Zea mays bx8 SEQ ID NO:2 was 1.5E6 units whereas the corresponding number for the equivalent protein containing the GIGVD peptide insert was 2.5E6 units. […]

| Compound | integrated peak area of beta-glucoside product | integrated peak area of glucoside product (LC/MS assay run for 30 min, N-terminally his tagged) [units] |
| --- | --- | --- |
| CN1CC(O)N(c2cc(C(F)(F)F)c(Cl)cn2)C1=O (stereo not shown) [XI] | 1.90E+04 and 2.36E+04 and 1.84E+04 | – |
| CN1CC(O)N(c2cc(C(F)(F)F)ccn2)C1=O (stereo not shown) [Compound V] | 2.52E+06 and 2.97E+06 | 1.5E6 |
| CON1C(=O)N(c2cc(C(F)(F)F)ccn2)C(O)[C@@H]1C (stereo partly shown) [Compound VI] | 8.08E+06 and 7.57E+06 and 8.81E+06 and 7.78E+06 | – |
